The values that follow come from ChEMBL document CHEMBL1240525, “Synthesis of cyclic di-nucleotidic acids as potential inhibitors targeting diguanylate cyclase” (Bioorg Med Chem, 2010).

The structures appear in SMILES notation. Active and inactive are the calls of the source. No cut-off for these calls is given here.

Assay [1] in a line: Inhibition of Synechocystis sp. recombinant diguanylate cyclase Slr1143 expressed in Escherichia coli DH5alpha after 2 mins.
Assay [2] relates to Synechocystis sp. The assay can be described thus: Inhibition of Synechocystis sp. recombinant diguanylate cyclase Slr1143 expressed in Escherichia coli DH5alpha at 100 uM after 2 mins.

Take `O=P1(O)OC[C@H]2O[C@H](n3cnc4c(O)ncnc43)[C@H](O)[C@@H]2OP(=O)(O)OC[C@@H]2O[C@H](n3cnc4c(O)ncnc43)[C@@H](O)[C@H]2O1`: the IC50 (in general, the midpoint of a concentration-inhibition curve) in assay [1] turned out to be 68.9 µM. For the same molecule, the inhibition – broadly, the relative decrease from the control value, in per cent – in assay [2] worked out at 60%. Consider `O=c1ccn([C@H]2O[C@@H]3COP(=O)(O)O[C@@H]4[C@H](O)[C@@H](n5ccc(=O)[nH]c5=O)O[C@H]4COP(=O)(O)O[C@H]3[C@H]2O)c(=O)[nH]1`, for which the inhibition result in assay [2] is “Active”.
